Measured values from patent publication US11840686B2, “Modulation of prekallikrein (PKK) expression” (Ionis Pharmaceuticals, Inc., priority 2013, dated 2023).
Strand notation (5' to 3'): a small letter for the sugar, then the base; units joined by * are phosphorothioate-linked, units joined directly phosphodiester-linked; [ ] holds rarer units or linkages, { } end groups; capitals alone tell only the bases. e = 2'-O-(2-methoxyethyl) (MOE); k = constrained ethyl (cEt); [5mC] = 5-methylcytosine; d = 2'-deoxy (DNA)

System: human PKK mRNA
Assay: Antisense inhibition of human PKK mRNA in HepaRG cells, 1,000 nM, MOE/deoxy/cEt oligonucleotides (Example 3)
Type: cell-based
Outline: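 HepaRG cells at 20,000 per well electroporated with 1,000 nM 16-mer MOE/cEt/deoxy gapmers (phosphorothioate, 5-methylcytosine). After about 24 h, PKK mRNA measured by qRT-PCR with primer probe set RTS3454, normalized to RIBOGREEN total RNA. Reported as percent inhibition versus untreated cells.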

[1] = HepaRG cells, electroporation with 1,000 nM antisense oligonucleotide, approx. 24 hours, PKK mRNA by RT-PCR (RTS3454), relative to untreated control cells, Table 25 experiment
[2] = Table 27, HepaRG cells, 1,000 nM antisense oligonucleotide, human PKK mRNA
[3] = Table 30, human PKK mRNA, HepaRG cells, 1,000 nM antisense oligonucleotide
[4] = HepaRG cells, electroporation with 1,000 nM antisense oligonucleotide, approximately 24 hours, primer probe set RTS3454, relative to untreated control cells, experiment of Table 24
[5] = Table 21 experiment, HepaRG cells, electroporation with 1,000 nM antisense oligonucleotide, approx. 24 hours, PKK mRNA by RT-PCR (RTS3454), relative to untreated control cells
[6] = PKK mRNA, HepaRG cells, 1,000 nM antisense oligonucleotide, Table 31
[7] = HepaRG cells, electroporation with 1,000 nM antisense oligonucleotide, approximately 24 hours, primer probe set RTS3454, relative to untreated control cells, experiment of Table 23
[8] = HepaRG cells, electroporation with 1,000 nM antisense oligonucleotide, approx. 24 hours, PKK mRNA by RT-PCR (RTS3454), relative to untreated control cells, Table 26 experiment
[9] = Table 28, HepaRG cells, 1,000 nM antisense oligonucleotide, human PKK mRNA
[10] = Table 20, HepaRG cells, electroporation with 1,000 nM antisense oligonucleotide, approximately 24 hours, PKK mRNA by RT-PCR (RTS3454), relative to untreated control cells
[11] = Table 22 experiment, HepaRG cells, electroporation with 1,000 nM antisense oligonucleotide, approx. 24 hours, PKK mRNA by RT-PCR (RTS3454), relative to untreated control cells
[12] = HepaRG cells, 1,000 nM antisense oligonucleotide, Table 29

## 548166 (eG*e[5mC]*kG*dA*d[5mC]*d[5mC]*dT*d[5mC]*dG*d[5mC]*dA*dT*dT*kG*kT*e[5mC]; antisense) [compound 548166]
[1]
  % inhibition: 0%

## 548327 (e[5mC]*eT*kA*d[5mC]*dA*d[5mC]*d[5mC]*dT*dT*dT*d[5mC]*dT*dG*k[5mC]*kA*e[5mC]; antisense) [compound 548327]
[2]
  % inhibition: 6%

## 548393 (e[5mC]*eG*k[5mC]*dT*dT*d[5mC]*dA*dG*dG*dA*dA*dA*dG*k[5mC]*kG*eA; antisense) [compound 548393]
[3]
  % inhibition: 26%

## 548208 (e[5mC]*eT*k[5mC]*dT*dG*dG*dT*d[5mC]*dA*dA*dT*d[5mC]*dT*kG*kA*e[5mC]; antisense) [compound 548208]
[1]
  % inhibition: 19%

## 548019 (e[5mC]*e[5mC]*k[5mC]*d[5mC]*dA*dA*dG*dA*dA*dG*dA*dG*dT*kT*kT*eG; antisense) [compound 548019]
[4]
  % inhibition: 24%

## 548031 (eG*eA*kT*dG*d[5mC]*dG*d[5mC]*d[5mC]*dA*dA*dA*d[5mC]*dA*kT*k[5mC]*e[5mC]; antisense) [compound 548031]
[4]
  % inhibition: 73%

## 547755 (eT*eA*kA*dA*dA*dA*dT*dG*dA*dA*d[5mC]*dG*dG*kT*k[5mC]*eT; antisense) [compound 547755]
[5]
  % inhibition: 0%

## 548653 (antisense eT*e[5mC]*kG*dG*d[5mC]*dT*d[5mC]*d[5mC]*dT*dG*dG*d[5mC]*dA*kG*k[5mC]*eA) [compound 548653]
[6]
  % inhibition: 46%

## 547920 (eG*eA*kG*dA*dA*d[5mC]*d[5mC]*d[5mC]*dT*dG*dG*d[5mC]*dA*kA*k[5mC]*eA; antisense) [compound 547920]
[7]
  % inhibition: 52%

## 548365 (antisense eT*eG*kT*dA*d[5mC]*dT*d[5mC]*d[5mC]*dA*d[5mC]*d[5mC]*dT*d[5mC]*kA*k[5mC]*eG) [compound 548365]
[2]
  % inhibition: 55%

## 548135 (eT*e[5mC]*kA*dG*dA*dA*dT*dT*dT*dG*dA*d[5mC]*dT*kT*kG*eA; antisense) [compound 548135]
Table 19, HepaRG cells, electroporation with 1,000 nM antisense oligonucleotide, approximately 24 hours, PKK mRNA by RT-PCR (RTS3454), relative to untreated control cells
  % inhibition: 46%

## 548418 (antisense eT*eA*kT*dA*dT*d[5mC]*dA*d[5mC]*dT*dG*dT*d[5mC]*d[5mC]*kT*kA*eT) [compound 548418]
[3]
  % inhibition: 39%

## 548216 (eG*eT*kG*d[5mC]*dA*dT*dA*dG*dA*d[5mC]*d[5mC]*d[5mC]*d[5mC]*kA*kA*e[5mC]; antisense) [compound 548216]
[1]
  % inhibition: 45%

## 548263 (antisense e[5mC]*eT*k[5mC]*dT*dA*d[5mC]*dA*dT*dA*d[5mC]*dT*d[5mC]*dA*kG*kG*eA) [compound 548263]
[8]
  % inhibition: 62%

## 548501 (antisense e[5mC]*eA*kA*dG*d[5mC]*d[5mC]*dA*d[5mC]*dT*dA*dA*d[5mC]*d[5mC]*k[5mC]*kA*e[5mC]) [compound 548501]
[9]
  % inhibition: 33%

## 547996 (antisense eT*eG*kT*dG*dT*d[5mC]*d[5mC]*d[5mC]*dA*dT*dA*d[5mC]*dG*k[5mC]*kA*eA) [compound 547996]
[7]
  % inhibition: 65%

## 547978 (antisense e[5mC]*eT*kT*dG*dG*d[5mC]*dA*dA*dA*d[5mC]*dA*dT*dT*k[5mC]*kA*e[5mC]) [compound 547978]
[7]
  % inhibition: 71%

## 548215 (eG*e[5mC]*kA*dT*dA*dG*dA*d[5mC]*d[5mC]*d[5mC]*d[5mC]*dA*dA*k[5mC]*kA*eG; antisense) [compound 548215]
[1]
  % inhibition: 61%

## 547838 (e[5mC]*eT*kT*d[5mC]*dA*dA*dG*dG*dA*dA*dT*dG*dT*k[5mC]*k[5mC]*eA; antisense) [compound 547838]
[5]
  % inhibition: 45%

## 548510 (antisense eT*eT*kA*dG*d[5mC]*d[5mC]*dA*d[5mC]*dT*d[5mC]*d[5mC]*dT*d[5mC]*kT*kT*eG) [compound 548510]
[9]
  % inhibition: 30%

## 548242 (eG*e[5mC]*kA*dT*dA*d[5mC]*dT*d[5mC]*dG*d[5mC]*d[5mC]*dT*dT*kT*kG*eT; antisense) [compound 548242]
[8]
  % inhibition: 25%

## 547880 (eT*eT*k[5mC]*dA*dA*d[5mC]*dA*d[5mC]*dT*dG*d[5mC]*dT*dA*kA*k[5mC]*e[5mC]; antisense) [compound 547880]
[10]
  % inhibition: 69%
[11]
  % inhibition: 59%

## 547881 (eA*eT*kT*d[5mC]*dT*dT*d[5mC]*dA*dA*d[5mC]*dA*d[5mC]*dT*kG*k[5mC]*eT; antisense) [compound 547881]
[10]
  % inhibition: 0%
[11]
  % inhibition: 50%

## 548606 (e[5mC]*eG*kG*dT*dG*dG*dT*dG*dG*dG*dA*dT*dT*kG*kG*eT; antisense) [compound 548606]
[12]
  % inhibition: 41%

## 548658 (antisense eG*eA*kA*dG*dT*dT*d[5mC]*d[5mC]*dT*dG*dT*dG*dT*k[5mC]*kT*eT) [compound 548658]
[6]
  % inhibition: 11%

## 548030 (e[5mC]*eT*kG*dG*dT*dG*dT*d[5mC]*d[5mC]*dT*dA*dT*dG*kA*kG*eT; antisense) [compound 548030]
[4]
  % inhibition: 52%

## 547829 (eA*e[5mC]*k[5mC]*dT*dG*dT*dT*d[5mC]*dG*dA*dT*dG*dT*kA*k[5mC]*eT; antisense) [compound 547829]
[5]
  % inhibition: 59%

## 547921 (eT*eG*kA*dG*dA*dA*d[5mC]*d[5mC]*d[5mC]*dT*dG*dG*d[5mC]*kA*kA*e[5mC]; antisense) [compound 547921]
[7]
  % inhibition: 43%

## 548292 (eA*eG*kG*dA*d[5mC]*dA*d[5mC]*dT*dG*dT*dT*dT*d[5mC]*k[5mC]*kA*eG; antisense) [compound 548292]
[8]
  % inhibition: 38%

## 548300 (eG*e[5mC]*k[5mC]*d[5mC]*dA*dT*dG*dG*dT*dG*dA*dA*dT*k[5mC]*kT*eG; antisense) [compound 548300]
[8]
  % inhibition: 53%

## 547866 (antisense eT*eT*kA*dA*dA*dA*dT*dT*dG*dA*d[5mC]*dT*d[5mC]*k[5mC]*kT*e[5mC]) [compound 547866]
[10]
  % inhibition: 46%
[11]
  % inhibition: 40%

## 548636 (antisense e[5mC]*eT*k[5mC]*dT*dA*dT*dA*d[5mC]*dA*dG*d[5mC]*dT*dG*kG*kG*e[5mC]) [compound 548636]
[6]
  % inhibition: 5%

## 548472 (e[5mC]*e[5mC]*k[5mC]*dA*dA*dT*dA*d[5mC]*dA*dG*dG*dG*d[5mC]*k[5mC]*kA*eG; antisense) [compound 548472]
[9]
  % inhibition: 0%

## 548376 (eG*e[5mC]*k[5mC]*dT*dT*dT*dG*dA*d[5mC]*d[5mC]*dT*dT*dT*k[5mC]*kG*e[5mC]; antisense) [compound 548376]
[2]
  % inhibition: 65%

## 548612 (antisense eG*eG*k[5mC]*dG*dG*dG*dA*dT*d[5mC]*dG*dG*dT*dG*kG*kT*eG) [compound 548612]
[12]
  % inhibition: 20%

## 548588 (eA*eG*k[5mC]*dT*d[5mC]*dA*d[5mC]*dA*d[5mC]*d[5mC]*d[5mC]*dA*dA*kA*kA*eA; antisense) [compound 548588]
[12]
  % inhibition: 10%

## 548642 (antisense eG*e[5mC]*kG*dG*d[5mC]*dA*dG*dT*dA*dG*dT*dG*dA*kA*kT*e[5mC]) [compound 548642]
[6]
  % inhibition: 23%

## 548164 (eG*eA*k[5mC]*d[5mC]*dT*d[5mC]*dG*d[5mC]*dA*dT*dT*dG*dT*k[5mC]*kA*eG; antisense) [compound 548164]
[1]
  % inhibition: 40%

## 548645 (antisense e[5mC]*e[5mC]*kA*dG*d[5mC]*dG*d[5mC]*dA*dA*dT*dT*d[5mC]*dT*kG*k[5mC]*eT) [compound 548645]
[6]
  % inhibition: 8%

## 548281 (antisense eG*eG*kT*dT*dG*dA*dG*dG*dG*dA*d[5mC]*dA*dG*kA*k[5mC]*eA) [compound 548281]
[8]
  % inhibition: 0%

## 548561 (antisense eT*eG*kT*dA*dG*dT*dA*dT*d[5mC]*d[5mC]*dA*dG*dA*kG*kT*eA) [compound 548561]
[12]
  % inhibition: 46%

## 548339 (antisense eA*e[5mC]*kA*dT*dG*dT*dG*dG*dG*dA*dT*d[5mC]*dA*kG*kA*eG) [compound 548339]
[2]
  % inhibition: 37%

## 548590 (eT*eG*kG*dT*d[5mC]*dA*dT*dG*dT*d[5mC]*dA*dA*d[5mC]*kT*kG*eT; antisense) [compound 548590]
[12]
  % inhibition: 35%

## 547905 (eT*eA*k[5mC]*dT*d[5mC]*dA*dG*d[5mC]*dA*d[5mC]*d[5mC]*dT*dT*kT*kA*eT; antisense) [compound 547905]
[10]
  % inhibition: 20%
[11]
  % inhibition: 59%

## 548515 (antisense eA*e[5mC]*k[5mC]*d[5mC]*dG*dT*d[5mC]*dA*dG*d[5mC]*d[5mC]*dT*d[5mC]*kA*kG*e[5mC]) [compound 548515]
[9]
  % inhibition: 59%

## 548282 (antisense eG*eT*kG*dG*dG*dT*dT*dT*dG*d[5mC]*dA*d[5mC]*dA*kT*kG*eG) [compound 548282]
[8]
  % inhibition: 73%
